Test results as given in PMC11897524 (Frontiers in Pharmacology, 2025).

Tests used:
BRD4 [1] = target: T1, BRD4 (Homo sapiens, UniProt O60885); assay: Microscale thermophoresis (MST) assay; format: binding; parameters: purchased Abcam; conditions: MST
STAT3 [2] = target: T2, STAT3 (Homo sapiens, UniProt P40763); assay: Microscale thermophoresis (MST) assay; format: binding; parameters: purchased Abcam; conditions: MST
Protocol: The MST experiments were performed using the Monolith NT.115 instrument. BRD4 and STAT3 proteins were labeled with the Lys labeling kit at the final concentration of 100 nM. The compounds, previously suspended in 100% DMSO, were diluted in a buffer containing 20 mM Tris·HCl (pH 7.5), 100 mM NaCl, and 3 mM DTT, achieving a final DMSO concentration of 5%. The compounds were gradient-diluted in 1:1 dilution and starting from 100 μM. The samples were loaded into MST-standard glass capillaries. All the measurements were performed in triplicate using automatically assigned 50% MST power and 20% LED power. Data analysis was performed using GraphPad Prism 7.0 software.

STAT3 [3] = target: T2, STAT3; assay: STAT3 binding inhibition assay; parameters: purchased Abcam
BRD4 [4] = target: T1, BRD4; assay: AlphaScreen BRD4 binding inhibition assay; parameters: purchased Abcam
Protocol: The inhibitory effect was measured through the previously described the amplified luminescent proximity homogeneous assay (AlphaScreen) ([Feng et al., 2018]). First, the compounds were diluted twofold to different concentrations (64, 32, 16, 8, 4, 2, 1, 0.5, 0.25, 0.125, 0.0625 nM) and each was incubated with BRD4 protein at a concentration of 12.5 nM for 15 min at room temperature. Biotin-labeled peptide (SGRG-K(Ac)-GG-K(Ac)-GLG-K(Ac)-GGA-K (Ac)-RHRKVGG-K-biotin) was added for 10 min, followed by streptavidin donor beads and AlphaScreen nickel chelate acceptor and incubation for 1h. All components were incubated in a total volume of 20 μL assay buffer containing 20 mM HEPES, pH 7.4, 0.1% bovine serum albumin (BSA, w/v), 0.01% Triton X-100, and 1 mM DTT. Finally, counts were measured by EnVision (Perkin Elmer, Hopkinton, MA) and analyzed by Graphpad Prism 7.0 software.

BRD4 [5] = test system: BRD4; parameters: method as in Boi et al., 2015; conditions: BRD4 inhibitor; ref Boi et al., 2015; read-out: IC50 value as reported; cited from earlier work
CAKI-2 cells = assay: MTT cytotoxicity assay; format: cell-based, human; conditions: Homo sapiens, CAKI-2, cell growth, 48 h treatment, read-out: IC50 (μM) ± SD CAKI-2
Protocol: Human normal renal cortical proximal tubular epithelial cell line HK-2 and human renal carcinoma cell lines CAKI-2, SLR-23, 769-P, A704 and RCC4 were previously purchased from the American Type Culture Collection (ATCC, Manassas, VA, USA) or the European Collection of Cell Cultures (ECACC, Salisbury, United Kingdom). HK2, A704, and RCC4 cells were maintained in high glucose DMEM supplemented with 10% FBS and 1% penicillin/streptomycin. SLR-23 and […] cells were cultured in RPMI-1640 medium with 10% FBS and 1% penicillin/streptomycin. CAKI-2 cells were maintained in McCoy’s 5A medium supplemented with 10% FBS and 1% penicillin/streptomycin. All the cell lines were cultured at 37°C in a humidified atmosphere of 5% CO2 and 95% air.
The effect of hit compounds on cytotoxicity was determined as previously reported ([Ding et al., 2020]). In brief, cells treated with the tested compounds were added with MTT reagent to form formazan crystals, and then the optical density (OD) values at 570 nm were determined after the crystals were dissolved in DMSO. […] Next, the values of IC50 of the selected compounds against more RCC cell lines were determined. The 5 × 10^3 cells in 100 μL culture medium were injected into each well of a 96-well plate and cultured overnight. Add different concentrations of compounds and incubate for 48 h. Then 100 μL of MTT (0.5 mg/mL) solution was added to the 96-well plate and maintained at 37°C for 4 h. Finally, 200 μL of DMSO was added and shaken for 10 min. The OD values at 570 nm were determined by a Synergy 4 microplate reader.

T2 sequence (P40763 whole entry): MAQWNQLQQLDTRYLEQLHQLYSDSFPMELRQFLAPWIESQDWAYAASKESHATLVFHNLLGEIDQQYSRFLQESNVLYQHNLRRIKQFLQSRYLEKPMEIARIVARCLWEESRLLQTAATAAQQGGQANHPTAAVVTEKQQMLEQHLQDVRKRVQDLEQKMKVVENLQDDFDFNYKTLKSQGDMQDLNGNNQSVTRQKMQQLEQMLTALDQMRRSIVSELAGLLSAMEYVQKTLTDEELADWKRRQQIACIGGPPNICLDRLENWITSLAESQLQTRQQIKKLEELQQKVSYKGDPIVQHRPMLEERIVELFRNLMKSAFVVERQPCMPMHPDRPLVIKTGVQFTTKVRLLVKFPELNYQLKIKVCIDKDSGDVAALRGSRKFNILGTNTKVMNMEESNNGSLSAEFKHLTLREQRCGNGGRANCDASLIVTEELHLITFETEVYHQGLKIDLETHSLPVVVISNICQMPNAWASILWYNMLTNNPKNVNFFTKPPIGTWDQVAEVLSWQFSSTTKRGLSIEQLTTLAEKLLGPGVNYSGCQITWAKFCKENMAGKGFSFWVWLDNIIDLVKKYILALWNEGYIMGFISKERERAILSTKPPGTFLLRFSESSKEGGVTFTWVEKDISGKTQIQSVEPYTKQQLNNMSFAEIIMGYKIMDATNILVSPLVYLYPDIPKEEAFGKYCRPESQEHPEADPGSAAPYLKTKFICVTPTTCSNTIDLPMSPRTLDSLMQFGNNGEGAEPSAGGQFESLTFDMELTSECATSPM

SMILES	Kd (BRD4 [1]) [nM]	Kd (STAT3 [2]) [nM]	IC50 (STAT3 [3]) [nM]	IC50 (BRD4 [4]) [nM]	IC50 (BRD4 [5]) [nM]	STAT3 (IC50, nM) (STAT3 [3])	IC50 (CAKI-2 cells) [µM]
CCS(=O)(=O)Cc1cnc(Oc2c(F)cc(F)cc2OCc2nc(COc3ccc(/C=C/c4cc(OC)cc(OC)c4)cc3)c[nH]2)c(-c2cc(C)c3c(=O)[nH]ccn23)c1 [BST-1]	12.3 ± 1.16	16.4 ± 0.95	20.8 ± 1.94	15.7 ± 1.31			
CCS(=O)(=O)Cc1cnc(Oc2c(F)cc(F)cc2O/C=C\CC(=O)COc2ccc(/C=C/c3cc(OC)cc(OC)c3)cc2)c(-c2cc(C)c3c(=O)[nH]ccn23)c1 [BST-2]	3.62 ± 0.25	28.7 ± 3.71	27.2 ± 2.82	4.64 ± 0.17			
CCS(=O)(=O)Cc1cnc(Oc2c(F)cc(F)cc2OC[C@@H]2CCC[C@H](COc3ccc(/C=C/c4cc(OC)cc(OC)c4)cc3)N2)c(-c2cc(C)c3c(=O)[nH]ccn23)c1 [BST-3]	5.37 ± 0.49	8.42 ± 0.38	11.3 ± 0.95	7.09 ± 0.53			
CCS(=O)(=O)Cc1cnc(Oc2c(F)cc(F)cc2OCC2CCC(COc3ccc(C=Cc4cc(OC)cc(OC)c4)cc3)N2)c(-c2cc(C)c3c(=O)[nH]ccn23)c1 (stereo not shown) [BST-5]	9.72 ± 0.84	13.7 ± 0.98	17.8 ± 1.24	10.1 ± 1.15			
Cc1sc2c(c1C)C(c1ccc(Cl)cc1)=N[C@@H](CC(=O)Nc1ccc(O)cc1)c1nnc(C)n1-2 [OTX-015]					~92		
COc1cc(OC)c2c(=O)[nH]c(-c3cc(C)c(OCCO)c(C)c3)nc2c1 [RVX-208, reference compound]						no inhibition	3.71 ± 0.42
